# Experimental data from patent US20080300298A1, “Honokiol Derivates For the Treatment of Proliferative Disorders” (priority 2005, published 2008).
# Key:
# SU-DHL-4 cells = assay: induction of apoptosis; assay type: cell-based; conditions: cells resistant to doxorubicin and As2O3-induced apoptosis; without activation of caspase 3
# Excerpt: However, in contrast to the complete block of As2O3-induced apoptosis by z-VAD-fmk, inhibition of HNK-induced apoptosis by z-VAD-fmk was only partial, evidenced by PARP cleavage and APO2.7 assay (FIGS. 7B and D).
# HNK induces apoptosis in SU-DHL4 cells, which express low levels of caspase-8 and -3 and are resistant to doxorubicin, As2O3, melphalan, dexamethasone, bortezomib (Chauhan et al. Cancer Res. 2003; 63:6174-6177), and revlimid. Therefore, agents such as HNK which kill MM cells via both caspase-dependent and caspase-independent pathways may be particularly useful to overcome drug resistance.
# AMP kinase in PC3 cells = assay: AMPK activation (Western blot); assay type: cell-based, human; conditions: normoxic and hypoxic conditions
# Description: Bharti, A. C. et al (2004) Blood 103, 3175-3184; Arbiser, J. L et al (1998) Mol. Med. 4, 376-383; Woods, A. et al (2003) Current Biology 13, 2004-2008; Shaw, R. J. et al (2004) PNAS 101, 3329-3335; Buzzai, M. et al (2005) Oncogene 24, 4165-4173). […] PC3 cells were treated with honokiol in normoxia (left) or hypoxia (right). In both cases, HIF-1a induction is dose dependent, and in the case of hypoxia, at least additive. Compounds can be tested on the p53 deficient PC3 human prostate cancer cell line, to see whether treatment results in activation of AMPK as in FIG. 20. PC3 cells can be treated with compound or vehicle for 24 hours, then proteins harvested and analyzed by Western blot for phosphorylation of the alpha subunit of AMPK, a marker of AMPK activation. In addition, phosphorylation of a substrate of AMPK, acetyl CoA carboxylase (ACC) can be monitored by Western blot.
# heart AMPKK = assay: direct activation of AMPKK in vitro; assay type: biochemical
# KBM-5 cells = assay: Annexin V assay; assay type: cell-based, human; conditions: KBM-5, honokiol 12 h then 1 nM TNF 16 h
# Excerpt: (D) depicts that honokiol enhances TNF-induced cell death.
# Annexin V assay. One of the early indicators of apoptosis is the rapid translocation and accumulation of the membrane phospholipid phosphatidylserine from the cell's cytoplasmic interface to the extracellular surface. This loss of membrane asymmetry can be detected using the binding properties of annexin V. Annexin V antibody conjugated with the fluorescent dye FITC was used to detect apoptosis. Briefly, 1×10^6 cells were pretreated with […] honokiol for 12 h, treated with 1 nM TNF for 16 h, and then subjected to annexin V staining. Cells were washed, stained with FITC-conjugated anti-annexin V antibody, and then analyzed with a flow cytometer (FACSCalibur; BD Biosciences).
# By using caspase-activated PARP cleavage, it was shown that the enhanced cytotoxicity was due to apoptosis. TNF-induced PARP cleavage was enhanced in the honokiol-treated cells (FIG. 26C).
# [1] = test system: collagen induced arthritis (CIA); assay: collagen induced arthritis (CIA); assay type: in vivo, C57Bl/6 and LMP1 transgenic mice; conditions: 3 mg/mouse/day i.p. from day 21 post-immunization
# Description: Female mice expressing the mCD40-LMP1 transgene (on a CD40−/− background) were bred in our transgenic mouse facility. Mice were either left naïve, immunized in the tail s.c. with […] Type II Chicken Collagen (Sigma) dissolved in 10 mM acetic acid and emulsified in IFA (Sigma) containing 5 mg/ml H37 RA heat-killed mycobacteria (Difco) (CFA), or immunized with 10 mM acetic acid emulsified in CFA. Some of the mice were injected i.p. with 3 mg/mouse/day honokiol suspended in 20% Intralipid, starting at day 21 post-immunization.
# NFkB in M12.4.1 cells = assay: NFkB activation (luciferase assay); assay type: cell-based, Mouse; conditions: M12.4.1 cells transfected with hCD40-LMP1; not necessarily to baseline
# Description: Mouse M12.4.1 cells (1.5×107), stably transfected with hCD40-LMP1 chimeric molecule were transiently transfected with […] 4×NFkB luciferase reporter plasmid and […] Renilla luciferase vector (pRL-null; Promega, Madison, Wis.) by electroporation. Cells (2×10^6 cells/ml) were rested on ice for 15 minutes, treated with medium alone (BCM), 10 mg/ml anti-TNF-a (MP6-XT3; MP6-XT22), or […] Honokiol for 30 minutes, then incubated an additional 6 hours in the presence of BCM, 10 mg/ml anti-(m)ouse or anti-(h)uman CD40 or isotype controls. After stimulation, cells were pelleted, lysed, and assayed for relative luciferase activity (NFkB: Renilla) per manufacturer's protocol (Promega) using a Turner Designs 20/20 luminometer, with settings of 2 second delay followed by 10 second read. (Note: anti-mCD40 reacts with endougenous CD40 and anti-hCD40 reacts with transfected hCD40-LMP1).
smiles,measurement,setting,value
"C=CCc1ccc(O)c(-c2ccc(O)c(CC=C)c2)c1 [HNK, Honokiol]",apoptosis in SU-DHL-4 cells,SU-DHL-4 cells,induced apoptosis in SU-DHL-4 cells
same,phosphorylation (activation) of AMP kinase,AMP kinase in PC3 cells,increased phosphorylation (activation) of AMP kinase
same,direct activation of heart AMPKK,heart AMPKK,does not directly activate heart AMPKK in vitro
same,TNF-induced early apoptosis (annexin V staining),KBM-5 cells,quite effective in enhancing the effects of TNF
same,collagen induced arthritis (CIA) pathology,[1],stablizes collagen induced arthritis (CIA) pathology
same,NFkB activation (luciferase assay),NFkB in M12.4.1 cells,inhibited by honokiol in a dose dependent manner
